Measured values published in the supplement of paper PMC10627819.

Legend:
B. subtilis 168 = assay: Bliss interaction score (quartile over a dose matrix) (fitness difference); higher = more antagonism (negative = synergy)
Outline: (§1)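 Fitness was derived from optical density at entry into stationary phase, divided by the robust mean of the no-drug wells on the same plate. That reading was taken as OD595, and the ratio was capped at 1. Single-drug fitness was inferred from the combination data. The Bliss score, observed fitness minus the expected product of single-drug fitness, was summarised as quartiles over technical, biological and donor/recipient replicates.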

S. aureus DSM 20231 = assay: as above
Outline: as §1

S. pneumoniae D39V [1] = assay: as above
Outline: as §1

S. aureus Newman = assay: as above
Outline: as §1

S. pneumoniae D39V [2] = assay: fitness (endpoint OD595 vs no drug) (fraction); higher = more growth
Outline: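 Growth medium was TSB, LB Lennox or CY, and plates were kept at 37 °C. Inoculation was at OD595 0.01 in 384-well plates, at 30 µl per well or 55 µl for S. pneumoniae. OD595 was monitored every 30 min for 14 h and background-subtracted using the first reading. Fitness is the optical density on entering stationary phase divided by the robust mean of no-drug controls, with values capped at 1.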
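Wherever Bliss interaction score (quartile over a dose matrix) is given: first quartile when negative (synergy) and third quartile when positive (antagonism).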

Clc1ccc(COC(Cn2ccnc2)c2ccc(Cl)cc2Cl)c(Cl)c1 (stereo unspecified) [Miconazole] + CN(C)c1cc(NC(=O)CNC(C)(C)C)c(O)c2c1C[C@H]1C[C@H]3[C@H](N(C)C)C(O)=C(C(N)=O)C(=O)[C@@]3(O)C(O)=C1C2=O [Tigecycline]
Conditions	Bliss interaction score
B. subtilis 168	0.0621
S. aureus DSM 20231	0.0455
S. aureus Newman	0.0412
S. pneumoniae D39V [1]	0.0957

fitness, S. pneumoniae D39V [2]
Conditions	first compound 1.073 µg/mL	first compound 1.25 µg/mL	first compound 2.145 µg/mL	first compound 2.5 µg/mL	first compound 4.29 µg/mL	first compound 5 µg/mL
partner 0.65 µg/mL	0.992	0.974	0.998	0.982	≥ 1	≥ 1
partner 1.3 µg/mL	≥ 1	0.997	0.992	0.991	≥ 1	≥ 1
partner 2.6 µg/mL	0.999	0.982	≥ 1	0.993	0.998	0.927

Clc1ccc(COC(Cn2ccnc2)c2ccc(Cl)cc2Cl)c(Cl)c1 (stereo unspecified) [Miconazole] + CN(N=O)C(=O)N[C@@H](C=O)[C@@H](O)[C@H](O)[C@H](O)CO [Streptozotocin]
Conditions	Bliss interaction score
B. subtilis 168	0.143
S. aureus DSM 20231	0.039
S. aureus Newman	0.0421
S. pneumoniae D39V [1]	0.0621

fitness, S. pneumoniae D39V [2]
Conditions	first compound 1.073 µg/mL	first compound 2.145 µg/mL	first compound 4.29 µg/mL
partner 1.2 µg/mL	0.997	0.982	0.939
partner 2.4 µg/mL	0.989	0.988	0.938
partner 4.8 µg/mL	≥ 1	0.977	0.923

fitness, S. pneumoniae D39V [2], one replicate
Conditions	first compound 1.25 µg/mL	first compound 2.5 µg/mL	first compound 5 µg/mL
partner 1.2 µg/mL	0.924	0.903	0.942
partner 2.4 µg/mL	0.971	0.94	≥ 1
partner 4.8 µg/mL	0.788	0.813	0.841

Clc1ccc(COC(Cn2ccnc2)c2ccc(Cl)cc2Cl)c(Cl)c1 (stereo unspecified) [Miconazole] + CN[C@@H]1[C@H](O)[C@H](NC)[C@H]2O[C@@]3(O)C(=O)C[C@@H](C)O[C@H]3O[C@@H]2[C@H]1O [Spectinomycin]
Conditions	Bliss interaction score
B. subtilis 168	0.0664
S. aureus DSM 20231	-0.0228
S. aureus Newman	0.0708
S. pneumoniae D39V [1]	0.09

fitness, S. pneumoniae D39V [2]
Conditions	first compound 1.073 µg/mL	first compound 2.145 µg/mL	first compound 4.29 µg/mL
partner 4 µg/mL	≥ 1	≥ 1	0.88
partner 8 µg/mL	0.966	0.995	0.961
partner 16 µg/mL	0.942	0.963	0.893

fitness, S. pneumoniae D39V [2], one replicate
Conditions	first compound 1.25 µg/mL	first compound 2.5 µg/mL	first compound 5 µg/mL
partner 4 µg/mL	0.963	0.95	0.985
partner 8 µg/mL	0.891	0.879	0.906

Clc1ccc(COC(Cn2ccnc2)c2ccc(Cl)cc2Cl)c(Cl)c1 (stereo unspecified) [Miconazole] + CN[C@@H]1[C@H](O[C@H]2[C@H](O[C@H]3[C@H](O)[C@@H](O)[C@H](N=C(N)N)[C@@H](O)[C@@H]3N=C(N)N)O[C@@H](C)[C@]2(O)C=O)O[C@@H](CO)[C@H](O)[C@H]1O [Streptomycin]
Conditions	Bliss interaction score
B. subtilis 168	0.0605
S. aureus DSM 20231	0.0476
S. aureus Newman	0.0487
S. pneumoniae D39V [1]	0.0827

fitness, S. pneumoniae D39V [2]
Conditions	first compound 1.073 µg/mL	first compound 1.25 µg/mL	first compound 2.145 µg/mL	first compound 2.5 µg/mL	first compound 4.29 µg/mL	first compound 5 µg/mL
partner 2 µg/mL	0.978	–	0.977	–	0.936	–
partner 4 µg/mL	0.988	0.909	0.988	0.904	0.946	0.912
partner 8 µg/mL	≥ 1	0.86	≥ 1	0.832	0.932	0.86

fitness, S. pneumoniae D39V [2], one replicate
Conditions	first compound 1.25 µg/mL	first compound 2.5 µg/mL	first compound 5 µg/mL
partner 2 µg/mL	0.922	0.964	0.977
partner 16 µg/mL	0.712	0.632	0.679

Clc1ccc(COC(Cn2ccnc2)c2ccc(Cl)cc2Cl)c(Cl)c1 (stereo unspecified) [Miconazole] + CN[C@H](CC(C)C)C(=O)N[C@H]1C(=O)N[C@@H](CC(N)=O)C(=O)N[C@H]2C(=O)N[C@H]3C(=O)N[C@H](C(=O)N[C@H](C(=O)O)c4cc(O)cc(O)c4-c4cc3ccc4O)[C@H](O)c3ccc(c(Cl)c3)Oc3cc2cc(c3O[C@@H]2O[C@H](CO)[C@@H](O)[C@H](O)[C@H]2O[C@H]2C[C@](C)(N)[C@H](O)[C@H](C)O2)Oc2ccc(cc2Cl)[C@H]1O [Vancomycin]
Conditions	Bliss interaction score
B. subtilis 168	0.0343
S. aureus DSM 20231	0.0309
S. aureus Newman	0.0654
S. pneumoniae D39V [1]	0.154

fitness, S. pneumoniae D39V [2]
Conditions	first compound 1.073 µg/mL	first compound 1.25 µg/mL	first compound 2.145 µg/mL	first compound 2.5 µg/mL	first compound 4.29 µg/mL	first compound 5 µg/mL
partner 0.03125 µg/mL	–	0.993	–	≥ 1	–	0.966
partner 0.0625 µg/mL	–	0.909	–	0.923	–	0.913
partner 0.125 µg/mL	0.884	0.759	0.851	0.81	0.84	0.731
partner 0.5 µg/mL	–	–	–	–	0.415	–

Clc1ccc(COC(Cn2ccnc2)c2ccc(Cl)cc2Cl)c(Cl)c1 (stereo unspecified) [Miconazole] + CO[C@H]1/C=C/O[C@@]2(C)Oc3c(C)c(O)c4c(O)c(c(/C=N/N5CCN(C)CC5)c(O)c4c3C2=O)NC(=O)/C(C)=C\C=C\[C@H](C)[C@H](O)[C@@H](C)[C@@H](O)[C@@H](C)[C@H](OC(C)=O)[C@@H]1C [Rifampicin]
Conditions	Bliss interaction score
B. subtilis 168	0.0476
S. aureus DSM 20231	0.035
S. aureus Newman	0.0801
S. pneumoniae D39V [1]	0.169

fitness, S. pneumoniae D39V [2]
Conditions	first compound 1.073 µg/mL	first compound 1.25 µg/mL	first compound 2.145 µg/mL	first compound 2.5 µg/mL	first compound 4.29 µg/mL	first compound 5 µg/mL
partner 0.05 µg/mL	0.974	0.774	1	0.806	0.998	0.779
partner 0.1 µg/mL	–	0.411	–	0.41	0.776	–
partner 0.2 µg/mL	0.363	–	0.37	–	0.477	–

fitness, S. pneumoniae D39V [2], one replicate
Conditions	first compound 1.25 µg/mL	first compound 2.5 µg/mL	first compound 5 µg/mL
partner 0.025 µg/mL	0.856	0.861	0.853
partner 0.2 µg/mL	0	0	0

Clc1ccc(COC(Cn2ccnc2)c2ccc(Cl)cc2Cl)c(Cl)c1 (stereo unspecified) [Miconazole] + COc1c(N2C[C@@H]3CCCN[C@@H]3C2)c(F)cc2c(=O)c(C(=O)O)cn(C3CC3)c12 [Moxifloxacin]
Conditions	Bliss interaction score
B. subtilis 168	-0.0223
S. aureus DSM 20231	-0.059
S. aureus Newman	0.0536
S. pneumoniae D39V [1]	0.0598

fitness, S. pneumoniae D39V [2]
Conditions	first compound 1.073 µg/mL	first compound 1.25 µg/mL	first compound 2.145 µg/mL	first compound 2.5 µg/mL	first compound 4.29 µg/mL	first compound 5 µg/mL
partner 0.0037 µg/mL	0.959	–	0.951	–	0.802	–
partner 0.005 µg/mL	–	0.935	–	0.926	–	0.953
partner 0.0075 µg/mL	0.986	–	0.942	–	0.796	–
partner 0.01 µg/mL	–	0.925	–	0.936	–	0.961
partner 0.015 µg/mL	0.957	–	0.942	–	0.682	–
partner 0.02 µg/mL	–	0.825	–	0.828	–	0.911

Clc1ccc(COC(Cn2ccnc2)c2ccc(Cl)cc2Cl)c(Cl)c1 (stereo unspecified) [Miconazole] + COc1ccc(C[C@H](N)C(=O)N[C@H]2[C@@H](O)[C@H](n3cnc4c(N(C)C)ncnc43)O[C@@H]2CO)cc1 [Puromycin]
Conditions	Bliss interaction score
B. subtilis 168	0.0522
S. aureus DSM 20231	0.0532
S. aureus Newman	0.0603
S. pneumoniae D39V [1]	0.124

fitness, S. pneumoniae D39V [2]
Conditions	first compound 1.073 µg/mL	first compound 2.145 µg/mL	first compound 4.29 µg/mL
partner 1 µg/mL	0.966	≥ 1	0.968
partner 2 µg/mL	0.996	≥ 1	0.976
partner 4 µg/mL	0.879	0.903	0.846

fitness, S. pneumoniae D39V [2], one replicate
Conditions	first compound 1.25 µg/mL	first compound 2.5 µg/mL	first compound 5 µg/mL
partner 1 µg/mL	0.884	0.91	≥ 1
partner 2 µg/mL	0.914	0.903	0.874
partner 4 µg/mL	0.742	0.717	0.809
